Experimental data taken from US5886165A, “Mixed backbone antisense oligonucleotides containing 2'-5'-ribonucleotide- and 3'-5'-deoxyribonucleotides segments” (Hybridon, Inc., priority 1996, dated 1999).
[25] = 2'-5' internucleotide linkage (phosphodiester)

Experiments:
Spleen cells (CD1 mouse) = experiment: In vitro cell proliferation assay ([3H]thymidine); type: cell-based; settings: at 10 μg/ml, 48 hrs
Protocol: Cell proliferation assays were carried out as described earlier (Zhao et al., Biochem. Pharmacol 51, 173-182 (1996)). Spleen cells (4-5 week old male CD1 mouse, 20-22 gm, Charles River, Wilmington, Mass.) suspensions were prepared and plated in 96-well dishes at a density of 10^6 cells/ml in a final volume of 100 μl. The cells were incubated at 37° C. after adding 10 μl of oligonucleotides. After 44 hrs incubation, 1 μCi [3H]thymidine (Amersham, Arlington Heights, Ill.) was added and the cells were pulse-labeled for another 4 hrs. The cells were harvested by an automatic cell harvester and the filters were counted by a scintillation counter. All experiments were carried out in triplicate.

[1] = test system: normal human serum complement lysis of sheep red blood cells; experiment: CH50 hemolytic complement assay; settings: for 50% Inhibition of Complement Lysis: compared to saline control
Protocol: A CH50 assay for complement lysis of sheep red blood cells (Colorado Serum Co., Denver, Col.) sensitized with anti-sheep red cell antibody (hemolysin; Diamedix, Miami, Fla.) as previously described (Mayer, In Experimental Immunochemistry, Kabat and Mayer eds., C. C. Thomas, Springfield, pp. 125-131 (1961)), was modified to test 1-200 dilutions of normal human serum interpreted. Hemoglobin release into cell-free supernates was measured spectrophotometrically at 541 nm. Data were calculated as 50% inhibition of lysis compared to saline control.

[2] = test system: RNA target strand SEQ ID NO 9 (25 base sequence from the initiation codon region of the HIV-1 gag mRNA); experiment: Thermal melting study, duplex with RNA target strand; type: binding; settings: for Tm RNA: duplex with RNA SEQ ID NO 9, 10 mM disodium hydrogen phosphate pH 7.5, 100 mM NaCl, 2.0 μM total strands; for Tm lower than duplex of control phosphorothioate oligonucleotide SEQ ID NO 8, RNA target: vs SEQ ID NO 8, RNA SEQ ID NO 9
Protocol: (§1) Thermal denaturation studies were carried out by mixing MBOs with the DNA or RNA target strands in equimolar ratios in 10 mM disodium hydrogen phosphate, pH 7.5±0.1, 100 mM sodium chloride buffer, heated to 95° C. for 10 min, and allowed to come to room temperature slowly before being stored at 4° C. overnight. The final total concentration of the oligonucleotide strands was 2.0 μM. Spectrophotometric measurements were performed at 260 nm using 1 cm path length quartz cuvettes at a heating rate of 0.5° C./min on a Perkin-Elmer (Norwalk, Conn.) Lambda 2 Specotrometer attached to a thermal controller and a personal computer. Melting temperatures (Tm) taken as the temperature of half-dissociation and were obtained from first derivative plots. Precision in Tm values estimated from variance in two or three repeated experiments was ±0.5° C.

HIV-1 = experiment: Inhibition of HIV-1 replication in cell culture (MT-4 cells, MTT); type: cell-based; settings: for IC50: 6 days
Protocol: Oligonucleotides according to the invention were studied for their ability to inhibit HIV-1. HIV-1 inhibition assay was carried out as described previously. Kandimalla et al., Nucleic Acids Res., supra). Briefly, serial dilutions of antisense oligonucleotides were prepared in 50 μl volumes of complete medium (RAMI-1640, 10% fetal bovine serum, 2 mM L-glutamine, 100 U/ml penicillin, […] streptomycin) in triplicate in 96-well plates. Virus diluted to contain a 90% CP dose of virus in 50 μl was added, followed by 100 μl 4×10^5 /ml MT-4 cells in complete medium. The plates were incubated at 37° C. in 5% CO2 for 6 days. MTT dye was added and quantified at A540 and A690 as described. The percent inhibition was calculated by the formula (experimental--virus control)/(medium control--virus control)×100.

[3] = test system: DNA target strand SEQ ID NO 10 (25 base sequence from the initiation codon region of the HIV-1 gag mRNA); experiment: Thermal melting study, duplex with DNA target strand; type: binding; settings: for Tm DNA: duplex with DNA SEQ ID NO 10, 10 mM disodium hydrogen phosphate pH 7.5, 100 mM NaCl, 2.0 μM total strands; for Tm lower than duplex of control phosphorothioate oligonucleotide SEQ ID NO 8, DNA target: vs SEQ ID NO 8, DNA SEQ ID NO 10
Protocol: as §1

[4] = test system: citrated normal human donor plasma; experiment: Clotting assay, activated partial thromboplastin time (aPTT); settings: compared to saline control; for 50% Prolongation of Clotting (aPTT): human plasma
Protocol: The activated partial thromboplastin time (aPTT) was performed with citrated normal human donor plasma in duplicate on an Electra 1000C (Medical Laboratory Automation, Mount Vernon, N.Y.) according to recommended procedures using Actin FSL (Baxter Dade, Miami, Fla.) and 2.5 mM calcium to initiate clot formation, which was measured photometrically. Normal plasma aPTT values ranged from 27 to 39 sec. Data were calculated as 50% of prolongation as compared to the saline control.

[5] = Stability in DMEM cell culture medium containing 10% fetal calf serum; type: in vitro ADME; settings: DMEM with 10% non-heat-inactivated fetal calf serum, 37° C.
Protocol: Oligonucleotides were labeled at the 5'-end with ^32 P using γ-^32 P-ATP (Amersham) and T4 polynucleotide kinase (Promega). Sambrook et al, Molecular Cloning, supra. Stability of the oligonucleotides in cell culture medium containing 10% fetal calf serum was tested by incubating a small amount of labeled oligonucleotide together with 100 ng of cold oligonucleotide in DMEM cell culture medium (Gibco/BRL, Grand Island, N.Y.) containing 10% non-heat-inactivated fetal calf serum (Gibco/BRL) at 37° C. in a final volume of 40 μl, and aliquots were removed at different times.

S1 nuclease = target: T1, S1 nuclease (Aspergillus oryzae, UniProt P24021); experiment: S1 nuclease assay; type: in vitro ADME; settings: 1.4 U, 37° C., pH 5.0
T1 construct: purchased Gibco/BRL
T1 sequence (P24021 21-287): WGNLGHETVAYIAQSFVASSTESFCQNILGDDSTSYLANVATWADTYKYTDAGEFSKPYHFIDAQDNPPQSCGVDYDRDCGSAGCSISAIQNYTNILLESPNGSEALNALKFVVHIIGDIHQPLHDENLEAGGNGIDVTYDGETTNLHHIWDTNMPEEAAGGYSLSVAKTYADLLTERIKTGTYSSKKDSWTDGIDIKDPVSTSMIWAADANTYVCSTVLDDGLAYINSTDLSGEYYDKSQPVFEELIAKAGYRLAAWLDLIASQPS
Protocol: For snake venom phosphodiesterase assay, labeled oligonucleotide with cold oligonucleotide in a buffer (10 mM Tris, pH 8.0, 100 mM sodium chloride, and 10 mM magnesium chloride) was incubated with 0.01 U of snake venom phosphodiesterase (Boehringer-Mannheim, Indianapolis, Ind.) at 21° C. (final volume 40 μl). Aliquots were removed at different time intervals for electrophoretic gel analysis. For S1 nuclease assay, reactions were carried out as above but in […] sodium acetate, pH 5.0, 10 mM zinc acetate buffer and with 1.4 U of S1 nuclease (Gibco/BRL) incubated at 37° C. in a final volume of 50 μl. Aliquots were removed at different time intervals for electrophoretic gel analysis. Nuclease reactions were stopped by adding 5 μl of formamide gel loading buffer to each sample and heating at 90° C. for 5 min. All the samples were then run by 20% PAGE (7M urea) and visualized by autoradiography.

Substance	Stimulation Index (Lymphocyte Proliferation) (Spleen cells (CD1 mouse))	50% Inhibition of Complement Lysis [1]	Tm RNA [2]	IC50 (HIV-1)	concentration required to achieve IC50 relative to control SEQ ID NO 8 (HIV-1; HIV-1 replication)	Tm DNA [3]	50% Prolongation of Clotting (aPTT) [4]	Stimulation Index (Lymphocyte Proliferation) (Spleen cells (CD1 mouse); listed as 3)	Tm lower than duplex of control phosphorothioate oligonucleotide SEQ ID NO 8, RNA target [2]	Tm lower than duplex of control phosphorothioate oligonucleotide SEQ ID NO 8, DNA target [3]	Stimulation Index (Lymphocyte Proliferation) (Spleen cells (CD1 mouse); listed as 8)	effect on complement hemolytic activity (in words) [1]	50% Prolongation of Clotting (aPTT) ([4]; listed as 8)	half-life in serum [5]	digestion by S1 nuclease (in words) (S1 nuclease)	effect in coagulation assay (in words) ([4]; up to 100 μg/ml dose)	IC50 (HIV-1; listed as 5)	Stimulation Index (Lymphocyte Proliferation) (Spleen cells (CD1 mouse); listed as 6)
SEQ ID NO 2: MBO with three 2'-5'-linkages at each end; 2'-5'-phosphodiester and 3'-5'-phosphorothioate linkages (antisense CUCTCGCACCCATCTCTCTCCUUCT; linkages [25]3 s18 [25]3 (s phosphorothioate, o phosphodiester), sugars by position and methylation of C not given here)	2.82 ± 0.37	59.1 µg/mL	63.3 °C	99.9 nM	four fold higher concentration	52.5 °C	51.1 µg/mL											
SEQ ID NO 3: Phosphorothioate analog of SEQ ID NO 1 (antisense CUCTCGCACCCATCTCTCTCCUUCT; phosphorothioate, chemistry not fully specified)	4.9	95.2 µg/mL	61.1 °C	29.8 nM		51.9 °C	58.0 µg/mL	4.93 ± 0.15	~2.4 °C	about 4.70 °C								
SEQ ID NO 8: Control phosphorothioate oligonucleotide containing all 3'-5' linkages (CTCTCGCACCCATCTCTCTCCTTCT; all phosphorothioate, sugars by position and methylation of C not given here) [reference compound]	6.16	34.2 µg/mL	63.5 °C	24.9 nM		56.6 °C	about 23 μg/ml				6.16 ± 0.12	inhibited serum complement hemolytic activity	23.2 µg/mL					
SEQ ID NO 7: Control phosphodiester oligonucleotide containing all 3'-5' linkages (CTCTCGCACCCATCTCTCTCCTTCT; all phosphodiester, sugars by position and methylation of C not given here) [reference compound]	1.10 ± 0.13	> 500.0 µg/mL	70.5 °C			63.5 °C	> 100.0 µg/mL							< 30 min	quickly digested	negligible effect		
SEQ ID NO 5: MBO with nine 2'-5'-linkages; 2'-5'-phosphodiester and 3'-5'-phosphorothioate linkages (antisense CUCTCGCACCCAUCTCTCTCCUUCT; nine 2'-5' phosphodiester linkages, other linkages 3'-5' phosphorothioate, further chemistry not given here)	1.09 ± 0.05		61.2 °C	> 800 nM		43.2 °C	115.0 µg/mL										812 nM	
SEQ ID NO 6: Phosphorothioate analog of SEQ ID NO 4, with nine 2'-5' linkages (antisense CUCTCGCACCCAUCTCTCTCCUUCT; all linkages phosphorothioate, nine 2'-5' linkages, further chemistry not given here)	0.23	> 500.0 µg/mL	56.4 °C			39.4 °C	98.3 µg/mL		7.1 °C	17.2 °C								0.23 ± 0.04
